In brackets after ≈: the same amount, converted by molar mass. Read-outs that look alike come from different tables or passages of the source.
Columns and labels:
[1] = Solubility in organic solvents (gravimetric, saturated solution from one-day slurry); assay type: physicochemical; conditions: for solubility at 1 day: organic solvent or mixture, thermodynamic from solid, 22° C.
Method: An excess of Compound A from Example 3 above was slurried in ethyl acetate for one day. A proportion of the saturated solution was then withdrawn through a 0.5 micrometer filter to a pre-weighted E-flask. The E-flask was weighed and then opened & evaporated in air, and then dried in vacuum at 40° C. until the weight was constant. The weight of the solution, the weight of dry substance, the weight of solvent and the volume of solvent were determined (using the density of ethyl acetate at 22° C.=0.90 g/ml).
(§1) An excess of Compound B from Example 2 above was slurried in isopropanol for one day in a closed vessel. A proportion of the saturated solution was then withdrawn through a 0.5 micrometer filter to a pre-weighted E-flask. The E-flask was weighed and then opened & evaporated in air, and then dried in vacuum at 70° C. until the weight was constant. The weight of the solution, the weight of dry substance, the weight of solvent and the volume of solvent were determined (using the density of isopropanol at 22° C.=0.79 g/ml).
as §1, with “Compound A” for “Compound B”, “Example 6” for “Example 2”
(§2) An excess of Compound A from Example 6 above was slurried in ethanol for one day in a closed vessel. A proportion of the saturated solution was then withdrawn through a 0.5 micrometer filter to a pre-weighed E-flask. The E-flask was weighed and then opened and evaporated in air, and then dried in vacuum at 40-50° C. until the weight was constant. The weight of the solution, the weight of dry substance, the weight of solvent and the volume of solvent were determined (using the density of ethanol at 22° C.=0.79 g/ml).
as §2, with “in methanol” for “in ethanol”, “a pre-weighted” for “a pre-weighed”, “opened &” for “opened and”, “of methanol” for “of ethanol”
as §1, with “Compound A” for “Compound B”, “Example 6” for “Example 2”, “in acetone” for “in isopropanol”, “of acetone” for “of isopropanol”, “22° C.=0.82” for “22° C.=0.79”

thrombin [2] = biological target: T1, thrombin (Homo sapiens, UniProt P00734); conditions: Test D of WO 02/44145; disclosed in Example 47 of WO 02/44145; cited from earlier work
thrombin [3] = biological target: T1, thrombin; conditions: Test A of WO 02/44145; disclosed in Example 46 of WO 02/44145; cited from earlier work
[4] = isopropanol, Compound B from Example 2 or Compound A anhydrate from Example 6
[5] = isopropanol, Compound B from Example 2 or Compound A anhydrate from Example 6, read-out: solubility (mg per ml isopropanol)

| solubility as weight % ([1]; acetone, Compound A from Example 6) | solubility as weight % ([1]; ethanol, Compound A from Example 6) | solubility as weight % ([1]; ethyl acetate, Compound A from Example 3) | solubility as weight % [1, 4] | solubility as weight % ([1]; methanol, Compound A from Example 6) | solubility at 1 day ([1]; acetone, Compound A from Example 6, read-out: solubility (mg per ml acetone)) | solubility at 1 day ([1]; ethanol, Compound A from Example 6, read-out: solubility (mg per ml ethanol)) | solubility at 1 day ([1]; ethyl acetate, Compound A from Example 3, read-out: solubility (mg per ml ethyl acetate)) | solubility at 1 day [1, 5] | solubility at 1 day ([1]; methanol, Compound A from Example 6, read-out: solubility (mg per ml methanol)) | Compound | IC50 (thrombin [2]) | IC50 (thrombin [3]) |
| --- | --- | --- | --- | --- | --- | --- | --- | --- | --- | --- | --- | --- |
| 33 % w/w | 10 % w/w | 4 % w/w | 2 % w/w | 45 % w/w | 398 mg/mL (≈ 801 mM) | 87 mg/mL (≈ 175 mM) | 36 mg/mL (≈ 72.4 mM) | 15 mg/mL (≈ 30.2 mM) | 655 mg/mL (≈ 1320 mM) | CO/N=C(\N)c1ccc(CNC(=O)[C@@H]2CCN2C(=O)[C@H](O)c2cc(Cl)cc(OC(F)F)c2)cc1 [Compound A, Ph(3-Cl)(5-OCHF2)—(R)CH(OH)C(O)-Aze-Pab(OMe)] |  |  |
|  |  |  | 0.4 % w/w |  |  |  |  | 3 mg/mL (≈ 6.21 mM) |  | N/C(=N\O)c1ccc(CNC(=O)[C@@H]2CCN2C(=O)[C@H](O)c2cc(Cl)cc(OC(F)F)c2)cc1 [Compound B, Ph(3-Cl)(5-OCHF2)—(R)CH(OH)C(O)-Aze-Pab(OH)] |  |  |
|  |  |  |  |  |  |  |  |  |  | N=C(N)c1ccc(CNC(=O)[C@@H]2CCN2C(=O)[C@H](O)c2cc(Cl)cc(OC(F)F)c2)cc1 [Compound C] | < 1000 nM | < 20 nM |
